Source: patent US8828696B2, “Use of Penicillin G Procaine as a selective antimicrobial agent in the production of alcohol by fermentation” (Lallemand Specialites, Inc, priority 2008, dated 2014)

How the values were obtained:
Lactobacillus brevis = experiment: Bacterial inhibition test; assay type: cell-based; design: key to bacterial growth in inhibition test: successful test corresponding to no growth is represented as (=); barely discernable growth is represented as (±); easily noticeable bacterial growth is represented as (+)
Text: (§1) To directly measure the efficacy of Penicillin G Procaine and Penicillin G Potassium a bacterial inhibition test was designed using industrial isolates and chosen ATCC strains. The inhibition testing was spread over 0.1 ppm to 5.0 ppm for the Lactobacillus fermentum and 1.0 ppm to 5.0 ppm for Lactobacillus brevis species of bacteria due to the lack of response of Lactobacillus brevis at lower concentrations. […] The strains used were two isolates of Lactobacillus fermentum and 2 isolates of Lactobacillus brevis. The Lactobacillus fermentum series contained both an industry derived isolate Ind 1 and an ATCC strain while the Lactobacillus brevis series comprised of two isolates, Ind 1 and Ind 43 derived from the ethanol plants. The inhibition test plates were set in triplicate and read at 12 hour intervals up to 48 hours of test endpoint. The results below represent the mode average of the outcome from the triplicate inhibitory test sets for each trial. Table 11 lists the Lactobacillus fermentum and the Lactobacillus brevis results of the inhibition testing as follows: successful test corresponding to no growth is represented as (=), barely discernable growth is represented as (±) and easily noticeable bacterial growth is represented as (+). The set of control tests depict (=) control as just broth and (+) control as just broth with bacteria but without any antibiotic.
(§2) The trial was set up as follows:
(§3) • 1. Weigh out 0.1 g of each sample to be tested into a 15 ml centrifuge tube. • 2. Dissolve sample into 10 ml sterile water. […] Add antibiotic to clean tube, add 2 ml water. • b. Vortex, if antibiotic goes into solution add water for final volume of 10 ml. • c. […] Vortex until all material is in solution. • 3. Vortex the solutions to make sure that they are well mixed. • 4. Filter the solutions through a 0.2 μm syringe filter into a second labeled sterile centrifuge tube. • 5. Add antibiotic solution to MRS Broth for a final volume of 10 ml at the test concentration for each antibiotic. • 6. Mix organism solutions and add 2 μl to each of 3 wells of a 24 well plate. If tubes are used add the 2 μl to each of three tubes for each antibiotic. • 7. Transfer 1 ml of the antibiotic-broth solution to each well containing bacteria. • 8. Recap remaining antibiotic solution and return the tube to the tube rack. This tube will become the negative control for each dilution created. • 9. Add four μl of each bacterial culture to another set of wells and add […] of broth without antibiotics. These wells will be the positive controls. • 10. Incubate plates and tubes at 33 C for 48 hours, examining all samples at 24 hours for growth. Any turbidity detected should be a result of bacterial growth.

Lactobacillus fermentum = experiment: Bacterial inhibition test; assay type: cell-based; design: key: successful test corresponding to no growth is represented as (=); barely discernable growth is represented as (±); easily noticeable bacterial growth is represented as (+)
Text: as §1, §2, §3

CC1(C)S[C@@H]2[C@H](NC(=O)Cc3ccccc3)C(=O)N2[C@H]1C(=O)O.CCN(CC)CCOC(=O)c1ccc(N)cc1 [Penicillin G Procaine]
±: bacterial growth in inhibition test (Lactobacillus brevis; Ind 1 L. brevis, 1 ppm, Inc Time 12) | bacterial growth in inhibition test (Lactobacillus brevis; Ind 1 L. brevis, 2 ppm, Inc Time 12) | bacterial growth in inhibition test (Lactobacillus brevis; Ind 1 L. brevis, 3 ppm, Inc Time 12) | bacterial growth in inhibition test (Lactobacillus brevis; Ind 1 L. brevis, 4 ppm, Inc Time 12) | bacterial growth in inhibition test (Lactobacillus brevis; Ind 1 L. brevis, 4 ppm, Inc Time 24) | bacterial growth in inhibition test (Lactobacillus brevis; Ind 1 L. brevis, 5 ppm, Inc Time 36) | bacterial growth in inhibition test (Lactobacillus brevis; Ind 43 L. brevis, 4 ppm, Inc Time 24) | bacterial growth in inhibition test (Lactobacillus brevis; Ind 43 L. brevis, 5 ppm, Inc Time 24) | bacterial growth in inhibition test (Lactobacillus brevis; Ind 43 L. brevis, 5 ppm, Inc Time 36) | bacterial growth in inhibition test (Lactobacillus fermentum; ATCC L. fermentum, 0.1 ppm, Inc Time 48) | bacterial growth in inhibition test (Lactobacillus fermentum; Ind 1 L. fermentum, 0.1 ppm, Inc Time 24) | bacterial growth in inhibition test (Lactobacillus fermentum; Ind 1 L. fermentum, 0.1 ppm, Inc Time 36) | bacterial growth in inhibition test (Lactobacillus fermentum; Ind 1 L. fermentum, 0.1 ppm, Inc Time 48) | bacterial growth in inhibition test (Lactobacillus fermentum; Ind 1 L. fermentum, 0.3 ppm, Inc Time 48)
+: bacterial growth in inhibition test (Lactobacillus brevis; Ind 1 L. brevis, 1 ppm, Inc Time 24) | bacterial growth in inhibition test (Lactobacillus brevis; Ind 1 L. brevis, 1 ppm, Inc Time 36) | bacterial growth in inhibition test (Lactobacillus brevis; Ind 1 L. brevis, 1 ppm, Inc Time 48) | bacterial growth in inhibition test (Lactobacillus brevis; Ind 1 L. brevis, 2 ppm, Inc Time 24) | bacterial growth in inhibition test (Lactobacillus brevis; Ind 1 L. brevis, 2 ppm, Inc Time 36) | bacterial growth in inhibition test (Lactobacillus brevis; Ind 1 L. brevis, 2 ppm, Inc Time 48) | bacterial growth in inhibition test (Lactobacillus brevis; Ind 1 L. brevis, 3 ppm, Inc Time 24) | bacterial growth in inhibition test (Lactobacillus brevis; Ind 1 L. brevis, 3 ppm, Inc Time 36) | bacterial growth in inhibition test (Lactobacillus brevis; Ind 1 L. brevis, 3 ppm, Inc Time 48) | bacterial growth in inhibition test (Lactobacillus brevis; Ind 1 L. brevis, 4 ppm, Inc Time 36) | bacterial growth in inhibition test (Lactobacillus brevis; Ind 1 L. brevis, 4 ppm, Inc Time 48) | bacterial growth in inhibition test (Lactobacillus brevis; Ind 1 L. brevis, 5 ppm, Inc Time 48) | bacterial growth in inhibition test (Lactobacillus brevis; Ind 43 L. brevis, 1 ppm, Inc Time 24) | bacterial growth in inhibition test (Lactobacillus brevis; Ind 43 L. brevis, 1 ppm, Inc Time 36) | bacterial growth in inhibition test (Lactobacillus brevis; Ind 43 L. brevis, 1 ppm, Inc Time 48) | bacterial growth in inhibition test (Lactobacillus brevis; Ind 43 L. brevis, 2 ppm, Inc Time 24) | bacterial growth in inhibition test (Lactobacillus brevis; Ind 43 L. brevis, 2 ppm, Inc Time 36) | bacterial growth in inhibition test (Lactobacillus brevis; Ind 43 L. brevis, 2 ppm, Inc Time 48) | bacterial growth in inhibition test (Lactobacillus brevis; Ind 43 L. brevis, 3 ppm, Inc Time 24) | bacterial growth in inhibition test (Lactobacillus brevis; Ind 43 L. brevis, 3 ppm, Inc Time 36) | bacterial growth in inhibition test (Lactobacillus brevis; Ind 43 L. brevis, 3 ppm, Inc Time 48) | bacterial growth in inhibition test (Lactobacillus brevis; Ind 43 L. brevis, 4 ppm, Inc Time 36) | bacterial growth in inhibition test (Lactobacillus brevis; Ind 43 L. brevis, 4 ppm, Inc Time 48) | bacterial growth in inhibition test (Lactobacillus brevis; Ind 43 L. brevis, 5 ppm, Inc Time 48)
=: bacterial growth in inhibition test (Lactobacillus brevis; Ind 1 L. brevis, 5 ppm, Inc Time 12) | bacterial growth in inhibition test (Lactobacillus brevis; Ind 1 L. brevis, 5 ppm, Inc Time 24) | bacterial growth in inhibition test (Lactobacillus brevis; Ind 43 L. brevis, 1 ppm, Inc Time 12) | bacterial growth in inhibition test (Lactobacillus brevis; Ind 43 L. brevis, 2 ppm, Inc Time 12) | bacterial growth in inhibition test (Lactobacillus brevis; Ind 43 L. brevis, 3 ppm, Inc Time 12) | bacterial growth in inhibition test (Lactobacillus brevis; Ind 43 L. brevis, 4 ppm, Inc Time 12) | bacterial growth in inhibition test (Lactobacillus brevis; Ind 43 L. brevis, 5 ppm, Inc Time 12) | bacterial growth in inhibition test (Lactobacillus fermentum; ATCC L. fermentum, 0.1 ppm, Inc Time 12) | bacterial growth in inhibition test (Lactobacillus fermentum; ATCC L. fermentum, 0.1 ppm, Inc Time 24) | bacterial growth in inhibition test (Lactobacillus fermentum; ATCC L. fermentum, 0.1 ppm, Inc Time 36) | bacterial growth in inhibition test (Lactobacillus fermentum; ATCC L. fermentum, 0.3 ppm, Inc Time 12) | bacterial growth in inhibition test (Lactobacillus fermentum; ATCC L. fermentum, 0.3 ppm, Inc Time 24) | bacterial growth in inhibition test (Lactobacillus fermentum; ATCC L. fermentum, 0.3 ppm, Inc Time 36) | bacterial growth in inhibition test (Lactobacillus fermentum; ATCC L. fermentum, 0.3 ppm, Inc Time 48) | bacterial growth in inhibition test (Lactobacillus fermentum; ATCC L. fermentum, 0.5 ppm, Inc Time 12) | bacterial growth in inhibition test (Lactobacillus fermentum; ATCC L. fermentum, 0.5 ppm, Inc Time 24) | bacterial growth in inhibition test (Lactobacillus fermentum; ATCC L. fermentum, 0.5 ppm, Inc Time 36) | bacterial growth in inhibition test (Lactobacillus fermentum; ATCC L. fermentum, 0.5 ppm, Inc Time 48) | bacterial growth in inhibition test (Lactobacillus fermentum; ATCC L. fermentum, 1 ppm, Inc Time 12) | bacterial growth in inhibition test (Lactobacillus fermentum; ATCC L. fermentum, 1 ppm, Inc Time 24) | bacterial growth in inhibition test (Lactobacillus fermentum; ATCC L. fermentum, 1 ppm, Inc Time 36) | bacterial growth in inhibition test (Lactobacillus fermentum; ATCC L. fermentum, 1 ppm, Inc Time 48) | bacterial growth in inhibition test (Lactobacillus fermentum; ATCC L. fermentum, 5 ppm, Inc Time 12) | bacterial growth in inhibition test (Lactobacillus fermentum; ATCC L. fermentum, 5 ppm, Inc Time 24) | bacterial growth in inhibition test (Lactobacillus fermentum; ATCC L. fermentum, 5 ppm, Inc Time 36) | bacterial growth in inhibition test (Lactobacillus fermentum; ATCC L. fermentum, 5 ppm, Inc Time 48) | bacterial growth in inhibition test (Lactobacillus fermentum; Ind 1 L. fermentum, 0.1 ppm, Inc Time 12) | bacterial growth in inhibition test (Lactobacillus fermentum; Ind 1 L. fermentum, 0.3 ppm, Inc Time 12) | bacterial growth in inhibition test (Lactobacillus fermentum; Ind 1 L. fermentum, 0.3 ppm, Inc Time 24) | bacterial growth in inhibition test (Lactobacillus fermentum; Ind 1 L. fermentum, 0.3 ppm, Inc Time 36) | bacterial growth in inhibition test (Lactobacillus fermentum; Ind 1 L. fermentum, 0.5 ppm, Inc Time 12) | bacterial growth in inhibition test (Lactobacillus fermentum; Ind 1 L. fermentum, 0.5 ppm, Inc Time 24) | bacterial growth in inhibition test (Lactobacillus fermentum; Ind 1 L. fermentum, 0.5 ppm, Inc Time 36) | bacterial growth in inhibition test (Lactobacillus fermentum; Ind 1 L. fermentum, 0.5 ppm, Inc Time 48) | bacterial growth in inhibition test (Lactobacillus fermentum; Ind 1 L. fermentum, 1.0 ppm, Inc Time 12) | bacterial growth in inhibition test (Lactobacillus fermentum; Ind 1 L. fermentum, 1.0 ppm, Inc Time 24) | bacterial growth in inhibition test (Lactobacillus fermentum; Ind 1 L. fermentum, 1.0 ppm, Inc Time 36) | bacterial growth in inhibition test (Lactobacillus fermentum; Ind 1 L. fermentum, 1.0 ppm, Inc Time 48) | bacterial growth in inhibition test (Lactobacillus fermentum; Ind 1 L. fermentum, 5.0 ppm, Inc Time 12) | bacterial growth in inhibition test (Lactobacillus fermentum; Ind 1 L. fermentum, 5.0 ppm, Inc Time 24) | bacterial growth in inhibition test (Lactobacillus fermentum; Ind 1 L. fermentum, 5.0 ppm, Inc Time 36) | bacterial growth in inhibition test (Lactobacillus fermentum; Ind 1 L. fermentum, 5.0 ppm, Inc Time 48)
1.0 ppm: minimum inhibitory concentration (Lactobacillus brevis; industry isolated Lactobacillus brevis, ppm of the fermentation mixture)
